Test [1] has as its system citrated plasma. Put plainly: T2MR PT clotting time in samples from donors on Coumadin therapy. The test is classed as in vivo, human. The method, then:
All samples were sourced from the coagulation laboratory at a local hospital. Lab protocol was to collect discarded citrated blood samples (venous draw, 1 mL minimum) from patients on Coumadin therapy with both normal and abnormal PT values. Citrated blood samples were stored at RT and within 4-5 hours of the draw time samples were spun down at 1500×g for 15 min to prepare plasma. Plasma samples were stored frozen at −70° C.
For citrated plasma, a tissue factor reagent was prepared by reconstituting the lyophilized Dade® Innovin® (tissue factor) reagent. Citrated plasma (13 μL) was mixed with 27 μL of tissue factor reagent. All reagents and disposables were adequately pre-heated. T2 values were collected with a 1 second dwell time and used to collect the T2 values as a function of time. The T2 vs. time data were collected for 120 successive measurements and fit with a five-parameter logistic fit to calculate the EC50, from which the clotting time was derived. A method comparison against the Stago ST4 system and a precision study was completed with 22 samples from normal donors not on anti-coagulant medications and 50 samples from donors on Coumadin. […] INR (international normalized ratio, a normalized PT value) values were calculated from a pool of normal healthy donors. […] This corresponds to a clotting time value that is prolonged compared to standard therapeutic ranges.

For test [2], the system named is citrated whole blood. The test can be described thus: T2Ex T2MR clotting time, extrinsic pathway activator (tissue factor). It counts as cell-based, human. An excerpt: In one embodiment a panel is used with an extrinsic activator such as tissue factor. The clotting time T2MR measurement for normal blood can be 30-40 seconds. It can also be 8-12 seconds, 10-20 seconds, 10-40 seconds, 30-40 seconds, 30-50 seconds, 40-60 seconds, 50-60 seconds or 20-60 seconds. The international normalized ratio for normal blood can then be 0.8-1.2, or 0.87-1.13. The abnormal range of T2MR measurement of clotting time is above or below the normal range. The total range easily measured is 8-300 seconds though a measurement up to or beyond 1000 seconds could be performed with modified acquisition. If aprotinin is added in addition to tissue factor, in normal blood the clotting time is often between 27.9 and 41.6 seconds.
The general extrinsic activator protocol was as follows (T2Ex panel): an extrinsic activator solution was prepared by mixing tissue factor reagent with CaCl2. […]
The T2Ex or the T2In protocols were also used with the addition of aprotinin (T2Ex-A and T2In-A) respectively. […] The sample was mixed and read in the T2reader. […]
Rivaroxaban was spiked into citrated blood from normal donors at increasing levels. Aliquots of spiked blood were activated with tissue factor activator solution and clot times determined by T2MR. […]

The test system of test [3] is plasma. The test can be described thus: STAGO aPTT. The test is classed as biochemical, human. Particulars: rivaroxaban spiked samples, six donors. The method, then: Citrated whole blood samples from six donors were provided and spiked with rivaroxaban to generate a range of clotting times. An activator of the intrinsic coagulation pathway, (e.g. ellagic acid), was added. T2MR clotting time range was between 73-202 seconds, and the STAGO aPTT range was between 29-86 seconds. Five replicate T2MR measurements were taken for each clotting time. The specification desired was between 0.7-5% CV with 100-200 seconds of clotting time and a detection range of 60-450 seconds.

The test system of test [4] is plasma. Put plainly: STAGO plasma prothrombin time (PT). Particulars: rivaroxaban spiked samples, three donors. It counts as biochemical, human. How it is done: Samples from three donors were provided. Rivaroxaban spiked citrated whole blood samples were used to generate a range of clotting time measurements. An extrinsic pathway activator, such as tissue factor, was added. The T2MR clotting time (CT) range used was 32-259 seconds, and the STAGO plasma prothrombin time (PT) range was 11-47 seconds. Five replicate T2MR measurements were taken for each clotting time.

Test [5] concerns citrated whole blood. The test can be described thus: T2In T2MR clotting time, intrinsic pathway activator (ellagic acid). The test is classed as cell-based, human. An excerpt:
In another embodiment a coagulopathy panel is used with an intrinsic activator such as ellagic acid. The common range of clotting time is often between 100 and 120 seconds for normal blood. However, it can be 22-30 seconds, 30-44 seconds, 44-60 seconds, 60-80 seconds, 80-100 seconds, up to 2 times to 4 times the range of normal T2MR clotting times for the extrinsic activator. The abnormal clotting time ranges are above or below the normal range. The total range easily measured is 8-300 seconds though a measurement up to or beyond 1000 seconds could be performed with modified acquisition. If aprotinin is added in addition to intrinsic activator, clotting times can often be from 110.9-151.0 seconds in normal blood.
The general intrinsic activator protocol is as follows (T2In panel): an intrinsic activator solution was prepared by mixing tissue factor reagent with CaCl2. To 36.7 μL of citrated whole blood (warmed to approximately 37° C. for 3 minutes and mixed) was added 5 μL of the intrinsic activator solution (also been warmed to approximately 37° C. for one minute). The resulting solution was mixed and subjected to T2 measurements for 50 minutes. For a given sample, a clotting time measurement was typically obtained within 5 minutes. Some examples of activators are tissue factor with phospholipids and ellagic acid with phospholipid. The reagents were placed in a tube that was subsequently placed in the magnetic field. Citrated whole blood was added and mixed. The blood was diluted 50%. The T2MR of the sample was measured for 30 minutes.
The T2Ex or the T2In protocols were also used with the addition of aprotinin (T2Ex-A and T2In-A) respectively. For the intrinsic pathway measurement (T2In), intrinsic activator solution was prepared by mixing ellagic acid stock and CaCl2. For the intrinsic pathway measurement that includes aprotinin (T2In-A), add 41.7 μL of a 1 mg/mL stock of aprotinin to 1 mL intrinsic activator solution. 36.7 μL citrated whole blood that had been warmed to approximately 37° C. for three minutes was added and mixed. […] The sample was mixed and read in the T2reader. […]

Test [6] deals with citrated whole blood. Put plainly: T2In platelet activity and fibrinolysis measurement with tPA or aprotinin. It counts as cell-based, human. Particulars: ellagic acid with CaCl2; tPA 0, 2 or 4 nM or aprotinin control; 65 min. How it is done: The T2Ex or the T2In protocols were also used with the addition of aprotinin (T2Ex-A and T2In-A) respectively. For the intrinsic pathway measurement (T2In), intrinsic activator solution was prepared by mixing ellagic acid stock and CaCl2. For the intrinsic pathway measurement that includes aprotinin (T2In-A), add 41.7 μL of a 1 mg/mL stock of aprotinin to 1 mL intrinsic activator solution. 36.7 μL citrated whole blood that had been warmed to approximately 37° C. for three minutes was added and mixed. 5 μL of intrinsic activator solution with aprotinin that had been warmed to approximately 37° C. for one minute was added. The sample was mixed and read in the T2reader. The clotting time measurement was obtained after 5 minutes and then the platelet activity and fibrinolysis measurements were obtained over the following 60 minutes. In a separate assay the effects of the amounts of activator were tested.
Platelet activity and fibrinolysis measurements for the 3 donor samples in the T2In assay are shown in FIG. 15a-15b. tPA levels of 0 nM, 2 nM or 4 nM were added to citrated whole blood. Blood samples (36.7 μL) were activated by addition of 5 μL ellagic acid solution with CaCl2. T2MR data was collected for 65 min. The addition of tPA cleaves the fibrin mesh of the clot and results in clot dissolution over time. This is detected by T2MR by the change in T2 value of the serum peak (third phase). […]

Test [7] has as its system platelet aggregation. Put plainly: Platelet aggregation by whole blood aggregometry (WBA) or light transmission aggregometry (LTA). It counts as cell-based, human. Particulars: titration of CCD.
Test [8] has as its system reconstituted blood samples. Put plainly: T2MR % deltaT2 fibrinogen measurement, reconstituted blood activated with ellagic acid. The test is classed as cell-based, human. An excerpt:
The T2MR based hemostasis assays described herein can be used to discriminate normal from abnormal patient samples for fibrinogen measurements using either an extrinsic or intrinsic pathway activation. […] Citrated whole blood from normal donors was centrifuged and […] removed. Packed red blood cells were washed with fibrinogen depleted plasma. Fibrinogen depleted plasma was spiked with known amounts of fibrinogen; these spiked plasmas were used to reconstitute washed red blood cells to produce blood samples with varying fibrinogen levels. Blood samples were activated with ellagic acid activator solution and clot time and % deltaT2 were measured. Fibrinogen levels in each sample were determined by the Clauss method. […] Low fibrinogen (120 mg/dL) gave an average % deltaT2 of 4, normal level fibrinogen (343 mg/dL) gave an average % deltaT2 of 8.3 and high fibrinogen (583 mg/dL) gave an average % deltaT2 of 10.7.

Experimental findings from patent publication US20180188195A1, “SYSTEMS AND METHODS FOR MULTIPLEXED HEMOSTASIS TEST PANELS” (T2 Biosystems, Inc., priority 2015, published 2018) are described below.

With `CC(=O)CC(c1ccccc1)c1c(O)c2ccccc2oc1=O` (centres unmarked) [Coumadin, warfarin], the “clotting times versus normal donors not on therapy” value in test [1] (citrated plasma, citrated blood and fresh whole blood) was “prolonged clotting times”. Further, the INR in test [1] (patient on Coumadin, hypocoagulable state) is 5.3; in test [1] (patient undergoing Coumadin therapy but hypercoagulable), 0.8. Also, the T2MR clotting time amounted to 51.3 s in test [1] (patient on Coumadin, hypocoagulable state, citrated plasma, tissue factor reagent) and 8.4 s in test [1] (patient undergoing Coumadin therapy but hypercoagulable, citrated plasma).

For the compound `O=C(NC[C@H]1CN(c2ccc(N3CCOCC3=O)cc2)C(=O)O1)c1ccc(Cl)s1` [rivaroxaban], in test [2] (800 ng/mL spiked into citrated blood from normal donors, tissue factor activator solution), the “extension of clot times” value is “approximately 80%”. Also, in test [2] (rivaroxaban spiked citrated whole blood, three donors, range over spiked samples (Example 12)), the “T2MR clotting time (CT) range” value was in the range of 32 to 259 s. In test [3], the “STAGO aPTT range” value lay within 29 to 86 s. In test [4], the “STAGO plasma prothrombin time (PT) range” value was in the range of 11 to 47 s. Also, the “T2MR clotting time range” value in test [5] (rivaroxaban spiked citrated whole blood, six donors) is 73 to 202 s.

With aprotinin, in test [6], the “change in T2 value of the serum peak (third phase)” value is reported as “no detected change”. Besides, in test [5] (T2In, 3 donors, different tPA concentrations, with or without aprotinin), the “clotting time curves (% deltaT2)” value is given as “appear to overlay”. The compound also came in with a clotting times in test [5] (aprotinin added in addition to intrinsic activator, normal blood) of 110.9 to 151.0 s.

On to `C=C1[C@@H](C)[C@H]2[C@H](Cc3ccccc3)NC(=O)[C@]23[C@H](OC(C)=O)/C=C/[C@@](C)(O)C(=O)[C@@H](C)C/C=C/[C@H]3[C@@H]1O` [CCD, cytochalasin D], for which, in test [7], the “effect on platelet aggregation” value is on record as “no reproducible effect”.

Regarding fibrinogen, the “average % deltaT2” value in test [8] (high fibrinogen 583 mg/dL) amounted to 10.7; in test [8] (low fibrinogen 120 mg/dL), 4; in test [8] (normal level fibrinogen 343 mg/dL), 8.3.
